Results taken from US20170157251A1, “Bi-Specific Monovalent Diabodies That are Capable of Binding CD19 and CD3, and Uses Thereof” (MacroGenics, Inc., priority 2015, published 2017).

Legend:
CD20+ B cells [1] = assay: Autologous B cell depletion in human PBMCs; type: cell-based
Source text: (§1) Potential differences in CD19 expression levels between human and cynomolgus monkey B cells may be another variable factor contributing to the apparent difference in potency.

[2] = system: CFSE-labeled human T cells; assay: Proliferation of CFSE-labeled human T cells co-cultured with HBL-2 target cells; type: cell-based; conditions: 200 ng/mL, E:T 10:1, 72 hours
Protocol: The expansion of T cells during effector:target cell co-engagement by […] was also evaluated, given that proliferation concomitant with T cell activation has been previously reported. […] Proliferation of CFSE-labeled T cells was monitored by levels of CFSE dilution over time by FACS analysis (FIGS. 16A-16B).

Raji/GF cells = assay: Redirected killing of target tumor cells using human T cells, Raji/GF; type: cell-based; conditions: HBL-2, Raji/GF, Jeko-1; E:T 10:1
[3] = system: human T cells with JIMT-1 cells; assay: Human T cell activation in the presence of CD19-negative JIMT-1 cells; type: cell-based
Raji.luc lymphoma cells = assay: Disseminated Raji.luc model in human PBMC-reconstituted mice, early treatment; conditions: 12 doses
[4] = Human FcRn transgenic mouse pharmacokinetic study; type: in vivo; conditions: human FcRn transgenic mice
Protocol: Three human mAbs were also evaluated in same test system for comparison and had terminal half-lives ranging from 58.7 to 102.7 hours.

HBL-2 tumor cells [5] = assay: HBL-2 co-mix xenograft with activated human T cells; type: in vivo, NOD/SCID mice; conditions: by Day 13
Source text: (§2) In both studies, human T cells and tumor cells (HBL-2 or Raji) were combined at a ratio of 1:5 (1×10^6 and 5×10^6 cells, respectively) and injected SC into mice on Day 0.

Raji tumor cells = assay: Raji co-mix xenograft with activated human T cells; type: in vivo, NOD/SCID mice; conditions: end of the study (Day 28)
Source text: as §2

[6] = system: cynomolgus monkey CD4+ and CD8+ T cells; assay: Cynomolgus monkey T cell activation (CD25, CD69) during redirected killing of Raji/GF cells; type: cell-based; conditions: Raji/GF target cells
Source text: (§3) The effect on T cells during DART-A-mediated redirected target cell (Raji/GF cells) lysis was characterized by evaluating expression of the T cell activation markers CD69 and CD25.

human T cells = assay: Cytokine release by human T cells in the presence of Raji/GF target cells (ELISA); type: cell-based; conditions: co-incubation with Raji/GF target cells
Raji.luc cells = assay: Disseminated Raji.luc model in human PBMC-reconstituted mice, established tumor; conditions: treatment from Study Day 15, 9 doses; DART-A 0.16 μg/kg to 0.5 mg/kg, Control DART 1 0.1 mg/kg
[7] = system: CLL malignant B cells (CD20+/CD5+); assay: Autologous depletion of malignant B cells in CLL primary patient PBMCs; type: cell-based, human
Protocol: Due to the limited patient sample availability, only 2 concentrations (50 ng/mL and 200 ng/mL) were tested. The percentages of CLL malignant B cells (CD19+/CD5+ or CD20+/CD5+) and T cells (CD19−/CD5+ or CD4+ and CD8+) were measured by flow cytometry prior to treatment and following treatment for 3 and 6 days.

HBL-2 tumor cells [8] = assay: Established HBL-2 xenograft model with human PBMCs; type: in vivo, NSG B2m−/− mice
Source text: Mice were implanted with HBL-2 tumor cells (5×10^6 cells) intradermally (ID) on Day 0 followed by intraperitoneal (IP) injection of PBMCs (5×10^7 cells) on Day 4.
However, prior to the third (Study Day 24) and fourth (Study Day 28) doses, the tumor volumes were 1469±162 and 848±74 mm^3, respectively, representing a 36% and 63%, respectively, decrease in tumor volume with respect to the peak volume recorded on Study Day 21 (FIG. 19B). The tumors continued to decrease in size to the extent that on Day 42, the average tumor volume was 248±52 mm^3, an 89% decrease in the tumor volume (FIG. 19B).

[9] = system: human CD4+ and CD8+ T cells; assay: Human T cell activation (CD25, CD69) during redirected killing of Raji/GF cells; type: cell-based; conditions: Raji/GF target cells
Source text: as §3

[10] = system: human CD8+ and CD4+ T cells; assay: Intracellular granzyme B and perforin in T cells in CTL assay; type: cell-based; conditions: 24 hours, Raji/GF target cells, E:T 10:1
Source text: Of note, the upregulation of granzyme B (FIG. 15A) and perforin (FIG. 15B) was higher in CD8+ T cells compared with CD4+ T cells, consistent with the expected higher CTL potency of CD8+ T cells.

CD20+ B cells [11] = assay: Autologous B cell depletion in cynomolgus monkey PBMCs; type: cell-based
Source text: as §1

Substance: Control DART 1: control DART capable of binding to fluorescein and CD3 [reference compound]
- CD20+ B cell depletion (CD20+ B cells [1]): no B cell depletion was observed
- cells proliferating (CFSE dilution) [2]: no proliferation of CFSE-labeled T cells was observed
- T cell redirected killing of target cells (Raji/GF cells): did not mediate T cell redirected killing of target cells
- T cell activation [3]: fail to mediate human T cell activation
- efficacy in dose-range finding study (Raji.luc lymphoma cells; 0.16 μg/kg to 0.5 mg/kg): rapid progression of Raji.luc tumor growth
- Study Day by which all mice died or were humanely sacrificed (Raji.luc lymphoma cells; 0.5 mg/kg IV): ≤ 53 Study Day
- terminal half-life [4]: 92.1 h
- average tumor volume (HBL-2 tumor cells [5]): approximately 1000 mm^3
- average tumor volume (Raji tumor cells): 2968.2±200.0 mm3
- T cell activation markers CD25 and CD69 [6]: did not mediate induction of T cell activation markers
- cytokine production (human T cells): did not result in any detectable cytokine production
- tumor burden / tumor progression, dose-range finding (Raji.luc cells): slight delay of tumor progression
- CD4+ ([7]; Day 3, 50 ng/mL): 3.08%
- CD8+ ([7]; Day 3, 50 ng/mL): 1.81%
- CD20+/CD5+ ([7]; Day 3, 50 ng/mL, E:T = 1:23): 73.5%
- CD4+ ([7]; Day 3, 200 ng/mL): 3.23%
- CD8+ ([7]; Day 3, 200 ng/mL): 1.62%
- CD20+/CD5+ ([7]; Day 3, 200 ng/mL): 72.9%
- CD4+ ([7]; Day 6, 50 ng/mL): 3.54%
- CD8+ ([7]; Day 6, 50 ng/mL): 2.26%
- CD20+/CD5+ ([7]; Day 6, 50 ng/mL): 74.9%
- CD25+/CD4+ ([7]; Day 6, 50 ng/mL): 1.4%
- CD25+/CD8+ ([7]; Day 6, 50 ng/mL): 20.6%
- CD4+ ([7]; Day 6, 200 ng/mL): 2.79%
- CD8+ ([7]; Day 6, 200 ng/mL): 1.82%
- CD20+/CD5+ ([7]; Day 6, 200 ng/mL): 73.4%
- CD25+/CD4+ ([7]; Day 6, 200 ng/mL): 1.4%
- CD25+/CD8+ ([7]; Day 6, 200 ng/mL): 14.3%
- B cell killing or upregulation of CD25 ([7]; through Day 6): no B cell killing or upregulation of CD25 was observed
- average tumor volume (HBL-2 tumor cells [8]; Day 21 (2nd dose), treatment from Day 17, DART-A 0.5 mg/kg IV): 1185.6±138.7 mm^3
- average tumor volume (HBL-2 tumor cells [8]; Day 24 (3rd dose), treatment from Day 17): 2623.7±351.5 mm^3
- T cell activation markers CD25 and CD69 [9]: did not mediate induction of T cell activation markers
- granzyme B and perforin levels in CD8+ and CD4+ T cells [10]: no upregulation of granzyme B or perforin was observed
- CD20+ B cell depletion (CD20+ B cells [11]): no B cell depletion was observed
